Patent US20260092054A1, “FUSED RING COMPOUND AND PHARMACEUTICAL CONTAINING SAME” (KAKEN PHARMACEUTICAL CO., LTD., priority 2022, published 2026)

Key:
human STAT6/pIL-4Rα = molecular target: T1, human STAT6/pIL-4Rα (Homo sapiens, UniProt P42226); assay: Binding inhibitory activity between human STAT6/pIL-4Rα by fluorescence polarization method; settings: rhSTAT6 (123-658) / FAM-pIL-4Rα peptide
T1 construct: histidine tag
T1 sequence (P42226 123-658): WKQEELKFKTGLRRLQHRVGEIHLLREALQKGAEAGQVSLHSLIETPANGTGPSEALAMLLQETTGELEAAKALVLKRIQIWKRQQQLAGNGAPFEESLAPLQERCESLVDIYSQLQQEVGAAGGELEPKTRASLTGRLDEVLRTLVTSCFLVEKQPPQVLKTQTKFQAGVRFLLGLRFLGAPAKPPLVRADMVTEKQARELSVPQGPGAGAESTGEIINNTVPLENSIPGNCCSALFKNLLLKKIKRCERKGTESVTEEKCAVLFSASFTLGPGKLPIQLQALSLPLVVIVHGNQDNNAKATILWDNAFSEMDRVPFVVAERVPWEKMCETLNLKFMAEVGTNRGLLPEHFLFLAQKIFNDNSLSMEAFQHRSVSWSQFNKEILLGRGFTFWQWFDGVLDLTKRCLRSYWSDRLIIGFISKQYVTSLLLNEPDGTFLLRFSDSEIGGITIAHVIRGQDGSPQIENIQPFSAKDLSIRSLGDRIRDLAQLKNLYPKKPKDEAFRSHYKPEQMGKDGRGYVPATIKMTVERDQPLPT
Procedure, shortened: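 His-tagged human STAT6 (residues 123–658, E. coli-expressed) was preincubated with compound for 30 min at RT in the dark, in buffer e.g. 50 mM NaCl, 10 mM HEPES pH 7.0, 1 mM DTT, 1 mM EDTA, 0.01% NP-40. FAM-pIL-4Rα peptide was then added for 30 min. Fluorescence polarisation was read at 485/535 nm, with IC50 interpolated linearly between two points flanking 50%.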

human STAT6 = assay: Human STAT6 dependent reporter activity (IL-4 stimulated STAT6 reporter assay using STAT6-HEK293 cells); type: cell-based; settings: IL-4 stimulation, luciferase activity; for inhibition at 0.1 µM / inhibition at 1 µM: Homo sapiens, read-out: Inhibition rate (%)

IC50 (human STAT6/pIL-4Rα) [nM]	SMILES	inhibition at 0.1 µM (human STAT6; compound 0.1 μmol/L) [%]	inhibition at 1 µM (human STAT6; compound 1 μmol/L) [%]	Inhibition rate (%) (human STAT6; compound 0.1 μmol/L)	Inhibition rate (%) (human STAT6; compound 1 μmol/L)
350	CCn1c(-c2ccc(-n3cnn(C)c3=O)cc2)cc2cc(C(F)(F)F)cc(C(=O)Nc3cccc(C(N)=O)c3)c21 [Ex. 35]	100	–	–	–
250	CCn1c(-c2ccc(-n3c(C)nn(C)c3=O)cc2)cc2cc(C(F)(F)F)cc(C(=O)Nc3cccc(C(N)=O)c3)c21 [Ex. 37]	96	100	–	–
330	CCn1c(-c2ccc(-n3cnn(C)c3=O)cc2)cc2cc(C(F)(F)F)cc(C(=O)Nc3ccc(F)c(C(N)=O)c3)c21 [Ex. 38]	–	100	99	–
1200	CCn1c(-c2ccc(-n3c(C)nn(C)c3=O)cc2)cc2cc(C(F)(F)F)cc(C(=O)Nc3ccc(F)c(C(N)=O)c3)c21 [Ex. 39]	84	99	–	–
290	CCn1c(-c2ccc(-n3c(C)nn(C)c3=O)cc2)cc2cc(C(F)(F)F)cc(C(=O)Nc3cccc(C(=O)NC)c3)c21 [Ex. 40]	92	100	–	–
280	COCCn1c(-c2ccc(-n3cnn(C)c3=O)cc2)cc2cc(C(F)(F)F)cc(C(=O)Nc3ccc(F)c(C(N)=O)c3)c21 [Ex. 41]	92	100	–	–
260	COCCn1c(-c2ccc(-n3cnn(C)c3=O)cc2)cc2cc(C(F)(F)F)cc(C(=O)Nc3cccc(C(N)=O)c3F)c21 [Ex. 42]	90	100	–	–
250	CNC(=O)c1cccc(NC(=O)c2cc(C(F)(F)F)cc3cc(-c4ccc(-n5cnn(C)c5=O)cc4)n(CCOC)c23)c1 [Ex. 43]	93	100	–	–
170	CNC(=O)c1cccc(NC(=O)c2cc(C(F)(F)F)cc3cc(-c4ccc(-n5c(C)nn(C)c5=O)cc4)n(CCOC)c23)c1 [Ex. 44]	93	100	–	–
250	CCn1c(-c2ccc(-n3cnn(C)c3=O)cc2)cc2cc(C(F)(F)F)cc(C(=O)Nc3ccc(F)c(C(N)=O)c3)c21 [Ex. 45]	–	–	63	100
450	Cn1ncn(-c2ccc(-c3cc4cc(C(F)(F)F)cc(C(=O)Nc5ccc(F)c(C(N)=O)c5)c4[nH]3)cc2)c1=O [Ex. 46]	81	100	–	–
1000	CCn1c(-c2ccc(-n3ncn(C)c3=O)cc2)cc2cc(C(F)(F)F)cc(C(=O)Nc3cccc(C(N)=O)c3F)c21 [Ex. 47]	43	95	–	–
340	CCn1c(-c2ccc(-n3ncn(C)c3=O)cc2)cc2cc(C(F)(F)F)cc(C(=O)Nc3cccc(C(N)=O)c3)c21 [Ex. 48]	84	100	–	–
310	CCn1c(-c2ccc(-n3c(C)nn(C)c3=O)cc2)cc2c(C(F)(F)F)ccc(C(=O)Nc3cccc(C(N)=O)c3F)c21 [Ex. 49]	97	100	–	–
560	CCn1c(-c2ccc(-n3c(C)nn(C)c3=O)cc2)cc2cc(C#N)cc(C(=O)Nc3ccc(F)c(C(N)=O)c3)c21 [Ex. 50]	42	99	–	–
490	CNC(=O)c1cc(NC(=O)c2cc(C(F)(F)F)cc3cc(-c4ccc(-n5c(C)nn(C)c5=O)cc4)n(CCOC)c23)ccc1F [Ex. 51]	13	82	–	–
190	COCCn1c(-c2ccc(-n3c(C)nn(C)c3=O)cc2)cc2cc(C(F)(F)F)cc(C(=O)Nc3cccc(C#N)c3)c21 [Ex. 52]	52	100	–	–

IC50 (human STAT6/pIL-4Rα) [nM]	SMILES	inhibition at 0.1 µM (human STAT6; compound 0.1 μmol/L) [%]	inhibition at 1 µM (human STAT6; compound 1 μmol/L) [%]	Inhibition rate (%) (human STAT6; compound 0.1 μmol/L)	Inhibition rate (%) (human STAT6; compound 1 μmol/L)
270	CCn1c(-c2ccc(-n3c(C)nn(C)c3=O)cc2)cc2cc(Cl)cc(C(=O)Nc3ccc(F)c(C(N)=O)c3)c21 [Ex. 56]	94	100	–	–
490	CCn1c(-c2ccc(-n3c(C)nn(C)c3=O)cc2)cc2nccc(C(=O)Nc3ccc(F)c(C(N)=O)c3)c21 [Ex. 57]	89	100	–	–
390	CCn1c(-c2ccc(-n3c(C)nn(C)c3=O)cc2)cc2nccc(C(=O)Nc3cccc(C(N)=O)c3F)c21 [Ex. 59]	83	99	–	–
470	CCn1c(-c2ccc(-n3c(C)nn(C)c3=O)cn2)cc2cc(C(F)(F)F)cc(C(=O)Nc3ccc(F)c(C(N)=O)c3)c21 [Ex. 61]	93	100	–	–
450	COCCn1c(-c2ccc(-n3c(C)nn(C)c3=O)cc2)cc2cc(C(F)(F)F)cc(C(=O)Nc3ccc4c(c3)C(=O)NCC4)c21 [Ex. 62]	59	99	–	–
440	CCn1c(-c2ccc(-n3cnn(C)c3=O)cn2)cc2cc(C(F)(F)F)cc(C(=O)Nc3cccc(C(N)=O)c3F)c21 [Ex. 65]	50	98	–	–
320	CCn1c(-c2ccc(N3CCOCC3=O)cc2)cc2cc(C(F)(F)F)cc(C(=O)Nc3cccc(C(N)=O)c3F)c21 [Ex. 66]	58	99	–	–
580	Cc1nn(C)c(=O)n1-c1ccc(-c2cc3cc(C(F)(F)F)cc(C(=O)Nc4ccc(F)c(C(N)=O)c4)c3n2CC2CC2)cc1 [Ex. 67]	56	96	–	–
350	CCn1c(-c2ccc(-n3c(C)nn(C)c3=O)cc2)cc2c(Cl)ccc(C(=O)Nc3ccc(F)c(C(N)=O)c3)c21 [Ex. 68]	59	100	–	–
290	COCCn1c(-c2ccc(-n3c(C)nn(C)c3=O)cc2)cc2cc(C(F)(F)F)cc(C(=O)Nc3ccccn3)c21 [Ex. 69]	61	100	–	–
760	COCCn1c(-c2ccc(-n3c(C)nn(C)c3=O)cc2)cc2cc(C(F)(F)F)cc(C(=O)Nc3cccnc3OC)c21 [Ex. 70]	-6	45	–	–
340	CCn1c(-c2ccc(-n3c(C)nn(C)c3=O)cc2F)cc2cc(C(F)(F)F)cc(C(=O)Nc3ccc(F)c(C(N)=O)c3)c21 [Ex. 72]	65	97	–	–
370	COCCn1c(-c2ccc(-n3c(C)nn(C)c3=O)cc2)cc2cc(C(F)(F)F)cc(C(=O)Nc3ccc(C)nc3)c21 [Ex. 73]	72	100	–	–
480	CCn1c(-c2ccc(-n3c(C)nn(C)c3=O)cc2)cc2nc(C(F)(F)F)cc(C(=O)Nc3ccc(F)c(C(N)=O)c3)c21 [Ex. 74]	21	91	–	–
360	CCn1c(-c2ccc(-n3c(C)nn(C)c3=O)cc2)cc2nc(C(F)(F)F)cc(C(=O)Nc3cccc(C(N)=O)c3F)c21 [Ex. 75]	36	93	–	–
360	CCn1c(-c2ccc(-n3c(C)nn(C)c3=O)cc2)cc2c(F)ccc(C(=O)Nc3ccc(F)c(C(N)=O)c3)c21 [Ex. 76]	31	94	–	–
590	CCn1c(-c2ccc(-n3c(C)nn(C)c3=O)cc2)cc2c(F)ccc(C(=O)Nc3cccc(C(N)=O)c3F)c21 [Ex. 77]	73	99	–	–
